# Measured values taken from US6555091B1, “Polypeptide capable of reacting with antibodies of patients suffering from multiple sclerosis and uses” (Bio Merieux, priority 1997, dated 2003).
# No end group written: not given here.
# Test system: IgG of sera from MS patients and healthy individuals
# Experiment: ELISA of biotinylated synthetic peptides, IgG response of individual human sera
# Type: binding
# Details: for MEAN / OD 1 / OD 2 / OD 3 / BASELINE (mark: above cut-off): 1/100
# Protocol: Depending on the information obtained from the preceding examples, the hexapeptides SEQ ID NO: 3 and SEQ ID NO: 4 were synthesized and biotinylated according to the method described in Patent Application No. EP 93420183 with the following modifications: the peptide still bound to the resin is selectively deprotected at the N-terminal position. After overnight incubation with the biotin-NHS at 50% in DMF, the peptide is then cleaved from the resin and treated as described in the patent cited above.
# The wells of a Maxisorb (trade name, Nunc) microtiter plate are saturated with 100 μl of a 50 mM NaHCO3 solution, pH 9.6, containing 10 μg/ml of streptavidin for 2 hours at 37° C. The plate is washed with TBS/0.05% Tween 20 buffer. The wells are then saturated with 250 μl of wash buffer supplemented with 10% goat serum for 1 hour at 37° C. and then washed as described above.
# The sera to be analyzed are diluted 1/100 in saturation buffer, supplemented with 0.05% Tween 20 and incubated for 2 hours at 37° C. After washing, a solution of peroxidase-labeled anti-human immunoglobulin G goat antibody conjugate (marketed by Jackson Immuno Research Laboratories Inc.) is added at the dilution of 1/10,000 and the plates are incubated for 1 hour at 37° C. After washes, the ortho-phenylenediamine (OPD) substrate is added and the reaction is stopped after 10 minutes by adding 50 μl of H2SO4. The optical density is read at 492 nm.
# In a test carried out with 1/100 dilutions of 11 English sera from MS patients at the remission stage and 4 negative English sera, the peptides SEQ ID NOs: 3 and 4 are recognized by 4 sera out of 11 which give a positive IgG signal compared with the negative serum which gave the highest signal.
# [1] = IgG, serum 33/6 (MS+, remission)
# [2] = IgG, serum 33/8 (MS+, remission)
# [3] = IgG, serum 33/18 (MS+, remission)
# [4] = IgG, serum No. 12 (MS−, healthy)
# [5] = IgG, serum No. 13 (MS−, healthy)
# [6] = IgG, serum No. 14 (MS−, healthy)
# [7] = IgG, serum No. 15 (MS−, healthy)
# [8] = IgG, serum QS 2 (MS+, remission)
# [9] = IgG, serum QS 3 (MS+, remission)
# [10] = IgG, serum QS 4 (MS+, remission)
# [11] = IgG, serum QS 6 (MS+, remission)
# [12] = IgG, serum QS 7 (MS+, remission)
# [13] = IgG, serum QS 8 (MS+, remission)
# [14] = IgG, serum QS 11 (MS+, remission)
# [15] = IgG, serum QS 12 (MS+, remission)
substance,measurement,setting,value
STGRPL [SEQ ID NO: 4],MS sera giving a positive IgG signal compared with the negative serum which gave the highest signal,"1/100 dilutions of 11 sera from MS patients at the remission stage, 4 negative sera",4 sera out of 11
same,"MS sera recognizing the peptide significantly, cut-off mean of negative sera plus 3 times the standard deviation","IgG, 1/100 dilutions of 11 MS remission sera, 4 negative sera",3 sera out of 11
same,BASELINE,"IgG, cut-off, mean of negative sera plus 3 times the standard deviation",674 optical density (×1000)
same,MEAN,[1],496 optical density (×1000)
same,OD 1,[1],465 optical density (×1000)
same,OD 2,[1],496 optical density (×1000)
same,OD 3,[1],525 optical density (×1000)
same,BASELINE (mark: above cut-off),[2],X (the mean of the values obtained with the negative sera is calculated and 3 times the standard deviation is added in order to determine a cut-off)
same,MEAN,[2],807 optical density (×1000)
same,OD 1,[2],849 optical density (×1000)
same,OD 2,[2],820 optical density (×1000)
same,OD 3,[2],753 optical density (×1000)
same,MEAN,[3],267 optical density (×1000)
same,OD 1,[3],258 optical density (×1000)
same,OD 2,[3],243 optical density (×1000)
same,OD 3,[3],299 optical density (×1000)
same,MEAN,[4],518 optical density (×1000)
same,OD 1,[4],567 optical density (×1000)
same,OD 2,[4],518 optical density (×1000)
same,OD 3,[4],469 optical density (×1000)
same,MEAN,[5],271 optical density (×1000)
same,OD 1,[5],286 optical density (×1000)
same,OD 2,[5],278 optical density (×1000)
same,OD 3,[5],268 optical density (×1000)
same,MEAN,[6],359 optical density (×1000)
same,OD 1,[6],322 optical density (×1000)
same,OD 2,[6],401 optical density (×1000)
same,OD 3,[6],354 optical density (×1000)
same,MEAN,[7],442 optical density (×1000)
same,OD 1,[7],423 optical density (×1000)
same,OD 2,[7],432 optical density (×1000)
same,OD 3,[7],470 optical density (×1000)
same,MEAN,[8],277 optical density (×1000)
same,OD 1,[8],267 optical density (×1000)
same,OD 2,[8],296 optical density (×1000)
same,OD 3,[8],267 optical density (×1000)
same,MEAN,[9],624 optical density (×1000)
same,OD 1,[9],668 optical density (×1000)
same,OD 2,[9],618 optical density (×1000)
same,OD 3,[9],585 optical density (×1000)
same,BASELINE (mark: above cut-off),[10],X (the mean of the values obtained with the negative sera is calculated and 3 times the standard deviation is added in order to determine a cut-off)
same,MEAN,[10],1026 optical density (×1000)
same,OD 1,[10],1096 optical density (×1000)
same,OD 2,[10],1120 optical density (×1000)
same,OD 3,[10],862 optical density (×1000)
same,MEAN,[11],206 optical density (×1000)
same,OD 1,[11],204 optical density (×1000)
same,OD 2,[11],212 optical density (×1000)
same,OD 3,[11],201 optical density (×1000)
same,BASELINE (mark: above cut-off),[12],X (the mean of the values obtained with the negative sera is calculated and 3 times the standard deviation is added in order to determine a cut-off)
same,MEAN,[12],1380 optical density (×1000)
same,OD 1,[12],1379 optical density (×1000)
same,OD 2,[12],1437 optical density (×1000)
same,OD 3,[12],1323 optical density (×1000)
same,MEAN,[13],552 optical density (×1000)
same,OD 1,[13],523 optical density (×1000)
same,OD 2,[13],504 optical density (×1000)
same,OD 3,[13],630 optical density (×1000)
same,MEAN,[14],269 optical density (×1000)
same,OD 1,[14],272 optical density (×1000)
same,OD 2,[14],273 optical density (×1000)
same,OD 3,[14],261 optical density (×1000)
same,MEAN,[15],237 optical density (×1000)
same,OD 1,[15],271 optical density (×1000)
same,OD 2,[15],227 optical density (×1000)
same,OD 3,[15],212 optical density (×1000)
